Test results as given in patent publication US6335350B1, “Acetamide and substituted acetamide-containing thiourea inhibitors of herpes viruses” (American Home Products Corporation, priority 1998, dated 2002).
Converted amounts (≈) assume the structure as drawn. Like-named read-outs stand apart in the source and are kept apart here.

Legend:
[1] = tested on: HCMV wild-type; experiment: HCMV yield assay; type: cell-based, human cytomegalovirus; conditions: for IC50: Human betaherpesvirus 5, Fibroblast, read-out: IC50 Ug/ml HCMV
Description: Yield assay. Monolayer cultures of human foreskin fibroblasts are infected with HCMV wild-type, typically at a multiplicity of infection equal to 0.2, in the presence of inhibitor compound (varying concentrations). At three days post-infection, total virus produced in these cultures (i.e. virus yield) is assessed by harvesting and titering the virus in 12-well plates of cultured human foreskin fibroblasts (done in the absence of inhibitor). Plaques are quantified at 2 weeks post-infection. An inhibitor of HCMV is identified by the reduction in titer of virus yield in the presence, compared to the titer in the absence of compound. In this assay, the relative anti-HCMV activity of an inhibitor is typically determined by calculating the IC50 or IC90 value, that is, the amount of compound required to reduce the virus yield by 50% or 90%, respectively. Table I describes IC50 data for compounds tested against HCMV.

[2] = tested on: HSV-1; experiment: HSV Antiviral (ELISA) Assay; type: cell-based, herpes simplex virus type 1; conditions: for IC50: Human alphaherpesvirus 1, Vero, read-out: IC50 Ug/ml HSV
Description: Vero cells (ATCC #CCL-81) are plated on 96-well tissue culture plates at 3.5×10^4 cells per 100 μl tissue culture DMEM (Dulbecco's modified Eagle media) supplemented with 2% fetal bovine serum (FBS) in each well. After overnight incubation @ 37° C. (in 5% CO2) and 30 minutes prior to infection with HSV-1 (multiplicity of infection equal to 0.006), cells are either untreated, or treated with test compound (multiple concentrations) or reference standard drug control. After approximately 24 hours post-infection incubation @ 37° C. (in 5% CO2), cells are fixed for ELISA assay. The primary antibody is murine anti-HSV glycoprotein D monoclonal primary antibody and the secondary antibody is goat anti-mouse IgG linked to β-galactosidase. Thus the extent of viral replication is determined by assessing β-galactosidase activity by quantifying the generation of the 4-methyl umbelliferone fluorescent cleavage product after addition of the methyl umbelliferyl-β-D-galactoside (Sigma #M1633) substrate on a microfluorimeter (365 nm for excitation and 450 nm for emission). Antiviral activity (IC50) of the test compound is determined by comparing the flourescence obtained in absence of compound to that obtained in the presence of compound.

[3] = tested on: VZV strain Ellen; experiment: VZV Antiviral (ELISA) Assay; type: cell-based, varicella-zoster virus; conditions: human foreskin fibroblast cells; for IC50 / inhibition at 10 µg/mL: Human alphaherpesvirus 3, Fibroblast; for IC50: read-out: IC50 Ug/ml VZV; for inhibition at 10 µg/mL: read-out: % inhibition 10 ug/ml VZV, 10 ug/ml
Description: For the generation of stock VZV to be used in the assay, VZV strain Ellen (ATCC #VR-1367) is used to infect human foreskin fibroblast (HFF) cells at low multiplicity (less than 0.1) and incubated overnight at 37° C. in 5% CO2. After the overnight incubation, the mixture of uninfected and VZV-infected HFF infected cells are then harvested and added to each well of 96-well plates (3.5×10^4 cells in 100 μl DMEM supplemented with 2% FBS) which contain test compound or the reference standard drug control (in 100 μl DMEM supplemented with 2% FBS per well). These cells are incubated for three days at 37° C. in 5% CO2, then fixed for ELISA assay. The primary antibody is murine anti-VZV glycoprotein II monoclonal antibody (Applied Biosystems, Inc. #13-145-100) and the secondary antibody is goat anti-mouse IgG linked to β-galactosidase. Thus the extent of viral replication is determined by assessing β-galactosidase activity by quantifying the generation of the 4-methyl umbelliferone fluorescent cleavage product after addition of the methyl umbelliferyl-β-D-galactoside (Sigma #M1633) substrate on a microfluorimeter (365 nm for excitation and 450 nm for emission). Antiviral activity (IC50) of the test compound is determined by comparing the flourescence obtained in absence of compound to that obtained in the presence of compound.

CC(=O)Nc1ccc(NC(=S)Nc2ccc(NC(=O)CN(C)C)c(Cl)c2)cc1 [Example 360, N-{4-[3-(4-Acetylamino-phenyl)-thioureido]-2-chloro-phenyl}-2-dimethyl-amino-acetamide]
IC50 Ug/ml HCMV ([1]; human foreskin fibroblasts): >10 Ug/ml
IC50 Ug/ml HSV ([2]; Vero cells, HSV-1): >10 Ug/ml
% inhibition 10 ug/ml VZV ([3]; 10 ug/ml): 16%
IC50 Ug/ml VZV [3]: >10 Ug/ml

CCCCOc1cc(OC)c(Cl)cc1NC(=S)Nc1ccc(NC(C)=O)cc1 [Example 833, N-{4-[3-(2-Butoxy-5-chloro-4-methoxy-phenyl)-thioureido]-phenyl}-acetamide]
IC50 ([1]; human foreskin fibroblasts): > 10 µg/mL
IC50 ([2]; Vero cells, HSV-1): 7 µg/mL (≈ 16.6 µM)
IC50 [3]: > 10 µg/mL
inhibition at 10 µg/mL [3]: 54%

CC(=O)Nc1ccc(NC(=S)Nc2ccc(C(C)O)c(Cl)c2)cc1 (centres unmarked) [Example 862, N-(4-{3-[3-Chloro-4-(1-hydroxy-ethyl)-phenyl]-thioureido}-phenyl)-acetamide]
IC50 ([1]; human foreskin fibroblasts): 2 µg/mL (≈ 5.5 µM)
IC50 ([2]; Vero cells, HSV-1): > 10 µg/mL
IC50 [3]: > 10 µg/mL
inhibition at 10 µg/mL [3]: 10%

COC(=O)COc1c(Cl)cc(NC(=S)Nc2ccc(NC(C)=O)cc2)cc1Cl [Example 883, {4-[3-(4-Acetylamino-phenyl)-thioureido]-2,6-dichloro-phenoxy}-acetic acid methyl ester]
IC50 ([1]; human foreskin fibroblasts): > 10 µg/mL
IC50 ([2]; Vero cells, HSV-1): 50 µg/mL (≈ 113 µM)
IC50 [3]: > 10 µg/mL
inhibition at 10 µg/mL [3]: 17%

CC(=O)Nc1ccc(NC(=S)Nc2ccc(NC3CCN(Cc4ccccc4)C3)c(Cl)c2)cc1 (centres unmarked) [Example 319, N-(4-{3-[4-(1-Benzyl-pyrrolidin-3-ylamino)-3-chloro-phenyl]-thioureido}-phenyl)-acetamide]
IC50 ([1]; human foreskin fibroblasts): 5 µg/mL (≈ 10.1 µM)
IC50 ([2]; Vero cells, HSV-1): 6 µg/mL (≈ 12.1 µM)
IC50 [3]: 7 µg/mL (≈ 14.2 µM)
inhibition at 10 µg/mL [3]: 82%

COC(=O)COc1cc(OC)c(NC(=S)Nc2ccc(NC(C)=O)cc2)cc1Cl [Example 217, {4-[3-(4-Acetylamino-phenyl)-thioureido]-2-chloro-5-methoxy-phenoxy}-acetic acid methyl ester]
IC50 ([1]; human foreskin fibroblasts): > 10 µg/mL
IC50 ([2]; Vero cells, HSV-1): > 50 µg/mL
IC50 [3]: > 10 µg/mL
inhibition at 10 µg/mL [3]: 10%

COc1cc(OCCO)c(Cl)cc1NC(=S)Nc1ccc(NC(C)=O)cc1 [Example 215, N-(4-{3-[5-Chloro-4-(2-hydroxy-ethoxy)-2-methoxy-phenyl]-thioureido}-phenyl)-acetamide]
IC50 ([1]; human foreskin fibroblasts): > 10 µg/mL
IC50 ([2]; Vero cells, HSV-1): > 50 µg/mL
IC50 [3]: > 10 µg/mL
inhibition at 10 µg/mL [3]: 30%

CC(=O)Nc1ccc(NC(=S)Nc2cc(Cl)ccc2O)cc1 [Example 126, N-{4-[3-(5-Chloro-2-hydroxy-phenyl)-thioureido]-phenyl}-acetamide]
IC50 ([1]; human foreskin fibroblasts): 20 µg/mL (≈ 59.6 µM)
IC50 ([2]; Vero cells, HSV-1): 30 µg/mL (≈ 89.3 µM)
IC50 [3]: > 10 µg/mL
inhibition at 10 µg/mL [3]: 23%

CC(=O)Nc1ccc(NC(=S)Nc2ccc(NC3CCN(Cc4ccccc4)CC3)c(Cl)c2)cc1 [Example 315, N-(4-{3-[4-(1-Benzyl-piperidin-4-ylamino)-3-chloro-phenyl]-thioureido}-phenyl)-acetamide]
IC50 ([1]; human foreskin fibroblasts): 1.5 µg/mL (≈ 2.95 µM)
IC50 ([2]; Vero cells, HSV-1): 8 µg/mL (≈ 15.7 µM)
IC50 [3]: > 10 µg/mL
inhibition at 10 µg/mL [3]: 40%

CCCCOc1ccc(NC(=S)Nc2ccc(NC(C)=O)cc2)cc1Cl [Example 266, N-{4-[3-(4-Butoxy-3-chloro-phenyl)-thioureido]-phenyl}-acetamide]
IC50 ([1]; human foreskin fibroblasts): > 10 µg/mL
IC50 ([2]; Vero cells, HSV-1): 12 µg/mL (≈ 30.6 µM)
IC50 [3]: > 10 µg/mL
inhibition at 10 µg/mL [3]: 10%

COc1cc(OCC#N)c(Cl)cc1NC(=S)Nc1ccc(NC(C)=O)cc1 [Example 212, N-(4-{3-[5-Chloro-2-methoxy-4-(2-nitrilo-ethoxy)-phenyl]-thioureido}-phenyl)-acetamide]
IC50 ([1]; human foreskin fibroblasts): 20 µg/mL (≈ 49.4 µM)
IC50 ([2]; Vero cells, HSV-1): > 50 µg/mL
IC50 [3]: > 10 µg/mL
inhibition at 10 µg/mL [3]: 23%

CC(=O)Nc1ccc(NC(=S)Nc2ccc(CCO)c(Cl)c2)cc1 [Example 864, N-(4-{3-[3-Chloro-4-(2-hydroxy-ethyl)-phenyl]-thioureido}-phenyl)-acetamide]
IC50 ([1]; human foreskin fibroblasts): > 10 µg/mL
IC50 ([2]; Vero cells, HSV-1): > 10 µg/mL
IC50 [3]: > 10 µg/mL
inhibition at 10 µg/mL [3]: 21%

CC(=O)Nc1ccc(NC(=S)Nc2cc(Cl)c(OCC(=O)OC(C)(C)C)c(Cl)c2)cc1 [Example 887, {4-[3-(4-Acetylamino-phenyl)-thioureido]-2,6-dichloro-phenoxy}-acetic acid tert-butyl ester]
IC50 ([1]; human foreskin fibroblasts): > 10 µg/mL
IC50 ([2]; Vero cells, HSV-1): 45 µg/mL (≈ 92.9 µM)
IC50 [3]: > 10 µg/mL
inhibition at 10 µg/mL [3]: 38%

COc1cc(OCCO)c(NC(=S)Nc2ccc(NC(C)=O)cc2)cc1Cl [Example 214, N-(4-{3-[5-Chloro-2-(2-hydroxy-ethoxy)-4-methoxy-phenyl]-thioureido}-phenyl)-acetamide]
IC50 ([1]; human foreskin fibroblasts): > 10 µg/mL
IC50 ([2]; Vero cells, HSV-1): 20 µg/mL (≈ 48.8 µM)
IC50 [3]: > 10 µg/mL
inhibition at 10 µg/mL [3]: 20%

CC(=O)Nc1ccc(NC(=S)Nc2ccc(OCC#N)c(Cl)c2)cc1 [Example 251, N-(4-{3-[3-Chloro-4-(2-nitrilo-ethoxy)-phenyl]-thioureido}-phenyl)-acetamide]
IC50 ([1]; human foreskin fibroblasts): 7 µg/mL (≈ 18.7 µM)
IC50 ([2]; Vero cells, HSV-1): > 50 µg/mL
IC50 [3]: > 10 µg/mL
inhibition at 10 µg/mL [3]: 22%

COc1cc(NCc2ccccc2)c(NC(=S)Nc2ccc(NC(C)=O)cc2)cc1Cl [Example 271, N-{4-[3-(2-Benzylamino-5-chloro-4-methoxy-phenyl)-thioureido]-phenyl}-acetamide]
IC50 ([1]; human foreskin fibroblasts): > 10 µg/mL
IC50 ([2]; Vero cells, HSV-1): 7 µg/mL (≈ 15.4 µM)
IC50 [3]: 3.5 µg/mL (≈ 7.69 µM)
inhibition at 10 µg/mL [3]: 105%

CC(=O)Nc1ccc(NC(=S)Nc2ccc(-c3cc[nH]n3)c(Cl)c2)cc1 [Example 925, N-(4-{3-[3-Chloro-4-(1H-pyrazol-3-yl)-phenyl]-thioureido}-phenyl)-acetamide]
IC50 ([1]; human foreskin fibroblasts): 3.5 µg/mL (≈ 9.07 µM)
IC50 ([2]; Vero cells, HSV-1): > 10 µg/mL
IC50 [3]: > 10 µg/mL
inhibition at 10 µg/mL [3]: 32%

COc1cc(OC)c(NC(=S)Nc2ccc(NC(C)=O)c(C(F)(F)F)c2)cc1Cl [Example 305, N-{4-[3-(5-Chloro-2,4-dimethoxy-phenyl)-thioureido]-2-trifluoromethyl-phenyl}-acetamide]
IC50 ([1]; human foreskin fibroblasts): > 10 µg/mL
IC50 ([2]; Vero cells, HSV-1): > 10 µg/mL
IC50 [3]: > 10 µg/mL
inhibition at 10 µg/mL [3]: 32%

CCCCOc1cc(OC)c(NC(=S)Nc2ccc(NC(C)=O)cc2)cc1Cl [Example 834, N-{4-[3-(4-Butoxy-5-chloro-2-methoxy-phenyl)-thioureido]-phenyl}-acetamide]
IC50 ([1]; human foreskin fibroblasts): > 10 µg/mL
IC50 ([2]; Vero cells, HSV-1): 10 µg/mL (≈ 23.7 µM)
IC50 [3]: 15 µg/mL (≈ 35.5 µM)
inhibition at 10 µg/mL [3]: 93%

CC(=O)Nc1ccc(NC(=S)Nc2ccccc2[N+](=O)[O-])cc1 [Example 878, N-{4-[3-(2-Nitro-phenyl)-thioureido]-phenyl}-acetamide]
IC50 ([1]; human foreskin fibroblasts): 40 µg/mL (≈ 121 µM)
IC50 ([2]; Vero cells, HSV-1): 50 µg/mL (≈ 151 µM)
IC50 [3]: > 10 µg/mL
inhibition at 10 µg/mL [3]: 23%

COc1c(I)cc(NC(=S)Nc2ccc(NC(C)=O)cc2)c(OC)c1I [Example 893, N-{4-[3-(3,5-Diiodo-2,4-dimethoxy-phenyl)-thioureido]-phenyl}-acetamide]
IC50 ([1]; human foreskin fibroblasts): 7 µg/mL (≈ 11.7 µM)
IC50 ([2]; Vero cells, HSV-1): 20 µg/mL (≈ 33.5 µM)
IC50 [3]: 2.5 µg/mL (≈ 4.19 µM)
inhibition at 10 µg/mL [3]: 76%

CC(=O)Nc1ccc(NC(=S)Nc2ccc(C(F)(F)F)c(Cl)c2)cc1 [Example 908, N-{4-[3-(3-Chloro-4-trifluoromethyl-phenyl)-thioureido]-phenyl}-acetamide]
IC50 ([1]; human foreskin fibroblasts): 0.6 µg/mL (≈ 1.55 µM)
IC50 ([2]; Vero cells, HSV-1): > 10 µg/mL
IC50 [3]: > 10 µg/mL
inhibition at 10 µg/mL [3]: 36%

CC(=O)Nc1ccc(NC(=S)Nc2ccccc2)cc1 [Example 814, N-[4-(3-Phenyl-thioureido)-phenyl]-acetamide]
IC50 [1]: > 10 µg/mL
IC50 [2]: > 10 µg/mL
IC50 [3]: > 10 µg/mL
inhibition at 10 µg/mL [3]: 15%
